Experimental data reported in patent US8969360B2, “Compounds useful as inhibitors of ATR kinase” (Vertex Pharmaceuticals Incorporated, priority 2013, dated 2015).

Key:
ATR kinase = target: T1, ATR kinase (Homo sapiens, UniProt Q13535); test: ATR Inhibition Assay (radioactive-phosphate incorporation); assay type: biochemical; settings: Ki(app); 5 nM full-length ATR, 10 μM ATP, 800 μM target peptide, 25° C.
T1 construct: Assays were carried out at 25° C. in the presence of 5 nM full-length ATR
Description: Compounds were screened for their ability to inhibit ATR kinase using a radioactive-phosphate incorporation assay. Assays were carried out in a mixture of 50 mM Tris/HCl (pH 7.5), 10 mM MgCl2 and 1 mM DTT. Final substrate concentrations were 10 μM [γ-33P]ATP (3 mCi 33P ATP/mmol ATP, Perkin Elmer) and 800 μM target peptide (ASELPASQPQPFSAKKK (SEQ. ID NO: 1)).
Assays were carried out at 25° C. in the presence of 5 nM full-length ATR. An assay stock buffer solution was prepared containing all of the reagents listed above, with the exception of ATP and the test compound of interest. 13.5 μL of the stock solution was placed in a 96 well plate followed by addition of 2 μL of DMSO stock containing serial dilutions of the test compound (typically starting from a final concentration of 15 μM with 3-fold serial dilutions) in duplicate (final DMSO concentration 7%). The plate was pre-incubated for 10 minutes at 25° C. and the reaction initiated by addition of 15 μL [γ-33P]ATP (final concentration 10 μM).
The reaction was stopped after […] by the addition of 30 μL, 0.1M phosphoric acid containing 2 mM ATP. A multiscreen phosphocellulose filter 96-well plate (Millipore, Cat no. MAPHN0B50) was pretreated with 100 μL 0.2M phosphoric acid prior to the addition of 45 μL of the stopped assay mixture. The plate was washed with 5×200 μL 0.2M phosphoric acid. After drying, 100 μL Optiphase ‘SuperMix’ liquid scintillation cocktail (Perkin Elmer) was added to the well prior to scintillation counting (1450 Microbeta Liquid Scintillation Counter, Wallac).
After removing mean background values for all of the data points, Ki(app) data were calculated from non-linear regression analysis of the initial rate data using the Prism software package (GraphPad Prism version 3.0cx for Macintosh, GraphPad Software, San Diego Calif., USA).
Compounds with a Ki value of <0.01 μM are marked with “+++.” Compounds with a Ki value >0.01 μM but <1 μM are marked with “++.” Compounds with a Ki value >1 μM but <5 μM are marked with “+.”

[1] = tested on: HCT116 colorectal cancer cells; test: Cisplatin Sensitization Assay (96 h cell viability MTS); assay type: cell-based; settings: concentration of compound required to reduce the IC50 of Cisplatin alone by at least 3-fold; HCT116, 96 h MTS
Description: Compounds can be screened for their ability to sensitize HCT116 colorectal cancer cells to Cisplatin using a 96 h cell viability (MTS) assay. […] Compounds and Cisplatin are then both added simultaneously to the cell media in 2-fold serial dilutions from a top final concentration of 10 μM as a full matrix of concentrations in a final cell volume of 200 μl, and the cells are then incubated at 37° C. in 5% CO2. After 96 h, 40 μl of MTS reagent (Promega G358a) is added to each well and the cells are incubated for 1 h at 37° C. in 5% CO2. Finally, absorbance is measured at 490 nm using a SpectraMax Plus 384 reader (Molecular Devices) and the concentration of compound required to reduce the IC50 of Cisplatin alone by at least 3-fold (to 1 decimal place) can be reported.
Compounds with a Cisplatin sensitization value of <0.02 μM are marked with “+++.” Compounds with a Cisplatin sensitization value>0.02 μM but <0.2 μM are marked with “++.” Compounds with a Cisplatin sensitization value >0.2 μM but <5 μM are marked with “+.”

T1 sequence (Q13535 whole entry): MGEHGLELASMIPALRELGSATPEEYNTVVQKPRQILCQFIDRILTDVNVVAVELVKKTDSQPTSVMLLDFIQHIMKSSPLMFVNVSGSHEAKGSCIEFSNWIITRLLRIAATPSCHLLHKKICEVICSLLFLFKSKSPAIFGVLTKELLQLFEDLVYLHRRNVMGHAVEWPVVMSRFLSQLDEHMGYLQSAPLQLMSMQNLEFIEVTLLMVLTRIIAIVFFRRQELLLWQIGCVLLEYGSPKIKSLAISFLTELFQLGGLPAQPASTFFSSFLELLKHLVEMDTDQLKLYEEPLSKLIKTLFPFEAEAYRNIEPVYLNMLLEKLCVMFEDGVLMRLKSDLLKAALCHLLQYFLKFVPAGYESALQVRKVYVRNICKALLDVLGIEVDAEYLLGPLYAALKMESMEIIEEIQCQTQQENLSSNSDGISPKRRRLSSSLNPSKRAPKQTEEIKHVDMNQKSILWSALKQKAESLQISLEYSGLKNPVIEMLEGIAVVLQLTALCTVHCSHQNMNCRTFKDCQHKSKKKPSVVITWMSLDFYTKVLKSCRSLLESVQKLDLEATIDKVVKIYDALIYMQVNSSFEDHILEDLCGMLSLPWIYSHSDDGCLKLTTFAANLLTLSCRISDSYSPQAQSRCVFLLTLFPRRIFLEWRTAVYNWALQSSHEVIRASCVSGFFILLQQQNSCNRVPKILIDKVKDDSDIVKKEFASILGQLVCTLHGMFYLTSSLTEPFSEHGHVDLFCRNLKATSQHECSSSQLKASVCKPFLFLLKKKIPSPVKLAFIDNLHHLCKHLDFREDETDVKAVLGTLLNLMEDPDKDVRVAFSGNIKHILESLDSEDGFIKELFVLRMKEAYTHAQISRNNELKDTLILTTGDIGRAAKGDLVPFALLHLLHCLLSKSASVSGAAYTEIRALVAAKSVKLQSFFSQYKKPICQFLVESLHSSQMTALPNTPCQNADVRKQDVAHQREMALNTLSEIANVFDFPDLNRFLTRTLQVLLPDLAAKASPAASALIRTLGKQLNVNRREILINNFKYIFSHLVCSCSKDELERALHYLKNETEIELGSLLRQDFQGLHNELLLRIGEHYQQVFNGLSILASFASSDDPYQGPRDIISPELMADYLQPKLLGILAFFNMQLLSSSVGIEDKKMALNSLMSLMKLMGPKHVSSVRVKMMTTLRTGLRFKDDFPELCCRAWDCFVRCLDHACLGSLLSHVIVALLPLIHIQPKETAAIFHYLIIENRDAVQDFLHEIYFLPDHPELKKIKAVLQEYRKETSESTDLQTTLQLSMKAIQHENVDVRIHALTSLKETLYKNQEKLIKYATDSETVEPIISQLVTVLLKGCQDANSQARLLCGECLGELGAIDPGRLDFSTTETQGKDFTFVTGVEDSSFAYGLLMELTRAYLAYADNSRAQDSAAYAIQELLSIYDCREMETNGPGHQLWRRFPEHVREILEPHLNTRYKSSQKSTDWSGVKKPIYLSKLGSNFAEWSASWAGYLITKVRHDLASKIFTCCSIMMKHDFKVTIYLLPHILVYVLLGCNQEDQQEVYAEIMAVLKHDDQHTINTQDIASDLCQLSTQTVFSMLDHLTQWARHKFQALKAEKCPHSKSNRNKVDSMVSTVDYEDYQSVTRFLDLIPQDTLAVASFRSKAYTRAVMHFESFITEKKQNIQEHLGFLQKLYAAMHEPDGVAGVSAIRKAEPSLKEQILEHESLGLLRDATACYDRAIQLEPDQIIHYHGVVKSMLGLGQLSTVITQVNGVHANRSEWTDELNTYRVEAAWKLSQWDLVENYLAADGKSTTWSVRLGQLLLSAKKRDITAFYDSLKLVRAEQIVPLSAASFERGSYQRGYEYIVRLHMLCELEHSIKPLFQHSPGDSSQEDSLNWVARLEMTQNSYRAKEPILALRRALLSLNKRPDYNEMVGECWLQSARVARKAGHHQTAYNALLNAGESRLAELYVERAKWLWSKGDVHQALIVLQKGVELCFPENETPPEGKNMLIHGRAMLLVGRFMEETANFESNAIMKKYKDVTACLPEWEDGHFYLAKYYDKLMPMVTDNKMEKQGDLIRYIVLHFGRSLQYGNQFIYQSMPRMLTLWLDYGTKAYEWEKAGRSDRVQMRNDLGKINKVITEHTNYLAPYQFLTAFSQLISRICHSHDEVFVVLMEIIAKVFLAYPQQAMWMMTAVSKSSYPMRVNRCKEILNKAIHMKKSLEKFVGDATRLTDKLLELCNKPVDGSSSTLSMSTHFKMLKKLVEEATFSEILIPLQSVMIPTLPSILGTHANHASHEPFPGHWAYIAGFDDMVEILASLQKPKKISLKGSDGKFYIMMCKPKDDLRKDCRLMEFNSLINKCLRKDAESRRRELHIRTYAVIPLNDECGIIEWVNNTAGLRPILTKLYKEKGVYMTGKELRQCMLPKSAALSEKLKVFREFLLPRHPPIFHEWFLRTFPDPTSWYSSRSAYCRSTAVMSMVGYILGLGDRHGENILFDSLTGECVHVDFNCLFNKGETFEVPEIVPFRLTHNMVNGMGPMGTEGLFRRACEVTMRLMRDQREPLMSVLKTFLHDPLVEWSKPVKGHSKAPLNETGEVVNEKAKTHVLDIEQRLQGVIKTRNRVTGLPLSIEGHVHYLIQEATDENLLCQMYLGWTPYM

`Nc1nn2ccc(C(F)(F)F)nc2c1C(=O)Nc1cnccc1OC1CC2(CCN2)C1` (stereo not shown) [I-O-22, N-(4-((4s,6r)-1-azaspiro[3.3]heptan-6-yloxy)pyridin-3-yl)-2-amino-5-(trifluoromethyl)pyrazolo[1,5-a]pyrimidine-3-carboxamide] was tested, and the Ki (ATR kinase) was 10 to 1000 nM and the “Synergy with Cisplatin” value [1] was “++ (Compounds with a Cisplatin sensitization value>0.02 μM but <0.2 μM are marked with “++.”)”.
With `CN(C)CCCOc1ccncc1NC(=O)c1c(N)nn2ccc(C(F)(F)F)nc12` [I-O-27, 2-amino-N-(4-(3-(dimethylamino)propoxy)pyridin-3-yl)-5-(trifluoromethyl)pyrazolo[1,5-a]pyrimidine-3-carboxamide] the Ki (ATR kinase) was 10 to 1000 nM and the “Synergy with Cisplatin” value [1] was “++ (Compounds with a Cisplatin sensitization value>0.02 μM but <0.2 μM are marked with “++.”)”.
`CCOc1ccncc1NC(=O)c1c(N)nn2ccc(C(F)(F)F)nc12` [I-O-2, 2-amino-N-(4-ethoxypyridin-3-yl)-5-(trifluoromethyl)pyrazolo[1,5-a]pyrimidine-3-carboxamide] was tested, and the Ki (ATR kinase) was < 10 nM and the “Synergy with Cisplatin” value [1] was “+++ (Compounds with a Cisplatin sensitization value of <0.02 μM are marked with “+++.”)”.
In the case of `Nc1nn2ccc(C(F)(F)F)nc2c1C(=O)Nc1cnccc1OC1CC2(CCN2)C1` (stereo not shown) [I-O-24, N-(4-((4r,6s)-1-azaspiro[3.3]heptan-6-yloxy)pyridin-3-yl)-2-amino-5-(trifluoromethyl)pyrazolo[1,5-a]pyrimidine-3-carboxamide], the Ki (ATR kinase) is reported as 10 to 1000 nM and the “Synergy with Cisplatin” value [1] is reported as “+++ (Compounds with a Cisplatin sensitization value of <0.02 μM are marked with “+++.”)”.
In the case of `Nc1nn2ccc(C(F)(F)F)nc2c1C(=O)Nc1cnccc1N1CCN(CCO)CC1` [I-N-3, 2-amino-N-(4-(4-(2-hydroxyethyl)piperazin-1-yl)pyridin-3-yl)-5-(trifluoromethyl)pyrazolo[1,5-a]pyrimidine-3-carboxamide], the Ki (ATR kinase) is reported as 10 to 1000 nM.
In the case of `NCC1CCN(c2ccncc2NC(=O)c2c(N)nn3ccc(C(F)(F)F)nc23)CC1` [I-N-2, 2-amino-N-(4-(4-(aminomethyl)piperidin-1-yl)pyridin-3-yl)-5-(trifluoromethyl)pyrazolo[1,5-a]pyrimidine-3-carboxamide], the Ki (ATR kinase) is reported as 10 to 1000 nM.
Compound `Nc1nn2ccc(C(F)(F)F)nc2c1C(=O)Nc1cnccc1OC1CN2CCC1CC2` (stereo not shown) [I-O-29, 2-amino-N-(4-(quinuclidin-3-yloxy)pyridin-3-yl)-5-(trifluoromethyl)pyrazolo[1,5-a]pyrimidine-3-carboxamide] has a Ki (ATR kinase) of 10 to 1000 nM.
Compound `CN1CC(Oc2ccncc2NC(=O)c2c(N)nn3ccc(C(F)(F)F)nc23)C1` [I-O-39, 2-amino-N-(4-((1-methylazetidin-3-yl)oxy)pyridin-3-yl)-5-(trifluoromethyl)pyrazolo[1,5-a]pyrimidine-3-carboxamide] has a Ki (ATR kinase) of 10 to 1000 nM.
In the case of `CNC1CCN(c2ccn3nc(N)c(C(=O)Nc4cnccc4OC)c3n2)C1` (stereo not shown) [I-O-81, 2-amino-N-(4-methoxypyridin-3-yl)-5-(3-(methylamino)pyrrolidin-1-yl)pyrazolo[1,5-a]pyrimidine-3-carboxamide], the Ki (ATR kinase) is reported as 10 to 1000 nM.
With `CC(C)(C#N)c1ccn2nc(N)c(C(=O)Nc3cnccc3OC3CNC3)c2n1` [I-O-53, 2-amino-N-(4-(azetidin-3-yloxy)pyridin-3-yl)-5-(2-cyanopropan-2-yl)pyrazolo[1,5-a]pyrimidine-3-carboxamide] the Ki (ATR kinase) was 10 to 1000 nM.
`COc1ccncc1NC(=O)c1c(N)nn2ccc(N3CC4(COC4)C3)nc12` [I-O-69, 2-amino-N-(4-methoxypyridin-3-yl)-5-(2-oxa-6-azaspiro[3.3]heptan-6-yl)pyrazolo[1,5-a]pyrimidine-3-carboxamide] gave a Ki (ATR kinase) of 10 to 1000 nM.
In the case of `Nc1nn2ccc(C(F)(F)F)nc2c1C(=O)Nc1cnccc1OC1CCC2(CC1)OCCO2` [I-O-7, N-(4-(1,4-dioxaspiro[4.5]decan-8-yloxy)pyridin-3-yl)-2-amino-5-(trifluoromethyl)pyrazolo[1,5-a]pyrimidine-3-carboxamide], the Ki (ATR kinase) is reported as 10 to 1000 nM.
